The values below come from patent publication US11702469B2, “Recombinant EGFL7, EGFL7 antibodies, and uses thereof” (Ohio State Innovation Foundation, priority 2017, dated 2023).

Data set [1] concerns HES1. The data set is described as follows: DLL4-Fc coated plate NOTCH activation (HES1 qRT-PCR), THP-1. The format is cell-based, human. The protocol: (§1) FIG. 24A-24G. EGFL7 prevents activation of NOTCH signaling in AML cells. (FIG. 24A) Overview of experiments using DLL4-FC and IgG-FC control coated plates to induce NOTCH activation. (FIG. 24B) THP-1 cells were pre-treated with 10 μM γ-secretase inhibitor (AVA), 100 μg/ml anti-EGFL7 antibody or 0.25 μM rEGFL7 for 30 min, then transferred to IgG-Fc or DLL4-Fc coated plates. After 4 h of incubation total RNA from THP-1 cells was extracted for qRT-PCR analysis of HES1 with β-ACTIN as internal control. ^###P<0.001 DLL4-FC vs IgG-FC; ***P<0.001 DLL4+AVA, DLL4+rEGFL7, and DLL4+anti-EGFL7 vs DLL4-FC. (FIG. 24C) Primary AML blasts were pretreated with 10 μM γ-secretase inhibitor (AVA), 100 μg/ml anti-EGFL7 antibody or 0.25 μM rEGFL7 for 30 min, then transferred to IgG-Fc or DLL4-Fc coated plates. After 4 h of incubation, total RNA was extracted for RT-PCR analysis of HES1 mRNA with β-ACTIN as internal control. ^###P<0.001 DLL4-Fc vs IgG-Fc; *P<0.05, ***P<0.001 vs DLL4 Fc. THP-1 cells were treated with the indicated concentration of anti-EGFL7 (@E7) then assessed for apoptosis using (FIG. 24D) AnnexinV+ staining and FACS; *P<0.05 (FIG. 24E) Immuno-blotting for PARP1 and Casp3 cleavage. (FIG. 24F) Cell differentiation was assessed by CD11B and CD14 staining 96-hours post anti-EGFL7 treatments; *P<0.05. (FIG. 24G) To determine whether activation of NOTCH by DLL4-Fc could be accentuated by anti-EGFL7 treatment, THP-1 cells were first treated with anti-EGFL7 (100 μg/ml) and then cultured on DLL4-FC or IgG-Fc coated plates and then assessed for apoptosis using AnnexinV+ staining and FACS. *P<0.05 DLL4-Fc and anti-EGFL7; vs DLL4-FC+anti-EGFL7.
Total RNA was extracted using Trizol reagent (Invitrogen, Carlsbad, Calif., USA). cDNA was synthesized using SuperScript III reagents (Invitrogen) according to the manufacturer's instruction. Quantitative Real-Time RT-PCR was performed using commercially available TaqMan Gene Expression Assay primers and the 7900HT Fast Real-Time PCR System (Applied Biosystems, Foster City, Calif., USA). […]

The test system of data set [2] is HES1. The data set is described as follows: OP9-DLL1 co-culture NOTCH activation (HES1 RT-PCR), THP-1. The format is cell-based, human. The conditions noted are these: THP-1 co-cultured with OP9-DLL1. From the text:
FIG. 27. EGFL7 prevents NOTCH ligand inactivation of Notch signaling in AML cells. (A) Overview of experiments involving co-culture of THP-1 cells with mouse stromal cells overexpressing DLL1. (B) Total RNA was extracted for RT-PCR analysis of HES1 with β-ACTIN as internal control. ^###P<0.001 OP9-DLL1 vs OP9; *P<0.05, **P<0.01 vs untreated control.
Total RNA was extracted using Trizol reagent (Invitrogen, Carlsbad, Calif., USA). cDNA was synthesized using SuperScript III reagents (Invitrogen) according to the manufacturer's instruction. Quantitative Real-Time RT-PCR was performed using commercially available TaqMan Gene Expression Assay primers and the 7900HT Fast Real-Time PCR System (Applied Biosystems, Foster City, Calif., USA). The expression levels of target genes were normalized to β-ACTIN. Relative expression was calculated by using the comparative 2^−ΔΔct method.
It was next determined whether EGFL7 is inhibiting NOTCH signaling in AML cells by competing with canonical NOTCH ligand binding. To perform these experiments, THP-1 cells were cultured on DLL4-Fc and IgG-Fc (control) coated plates to activate NOTCH signaling. The effect of rEGFL7 and anti-EGFL7 on this DLL4-Fc NOTCH activation was also tested (FIG. 24A). […] For these experiments, co-culture was performed of THP-1 cells with stromal cells (OP9) overexpressing membrane bound DLL1 (OP9-DLL1)^25 (FIG. 27A).

Data set [3] concerns NOTCH signaling. The data set can be described thus: Gamma-secretase inhibitor on Parsatuzumab induced NOTCH activation, primary blasts. It counts as cell-based, human. The protocol: as §1, with “(FIG. 24C) Primary AML blasts were pretreated with 10 μM γ-secretase inhibitor (AVA), 100 μg/ml anti-EGFL7 antibody or 0.25 μM rEGFL7 for 30 min, then transferred to IgG-Fc or DLL4-Fc coated plates. After 4 h of incubation, total RNA was extracted for RT-PCR analysis of HES1 mRNA with β-ACTIN as internal control. ^###P<0.001 DLL4-Fc vs IgG-Fc; *P<0.05, ***P<0.001 vs DLL4 Fc.” left out, “DLL4-FC+anti-EGFL7. […]” for “DLL4-FC+anti-EGFL7.”

Data set [4] has as its system FLT3-ITD AML. The note with it: phase I/II study in AML; cited from earlier work.
Data set [5] concerns acute myeloid leukemia. The conditions noted are these: PSC-833 arm with cytarabine, daunorubicin and etoposide; cited from earlier work.

For the compound `NC(=O)[C@@H](CCC(F)(F)F)N(Cc1ccc(-c2ncon2)cc1F)S(=O)(=O)c1ccc(Cl)cc1` [AVA, Avagacestat], the “DLL4-Fc-mediated NOTCH activation (HES1)” value in data set [1] (pre-treated 30 min: 10 μM AVA, 100 μg/ml anti-EGFL7 or 0.25 μM rEGFL7, then 4 h, vs DLL4-FC) is “significantly reduced”. In data set [2], the “DLL1-mediated NOTCH activation (HES1)” value is “significantly reduced”. Also, in data set [3], the “Parsatuzumab induced NOTCH activation” value is given as “blocked”.
With `CCc1nc(C(N)=O)c(Nc2ccc(N3CCC(N4CCN(C)CC4)CC3)c(OC)c2)nc1NC1CCOCC1` [Gilteritinib], the tolerability and safety result in data set [4] is “tolerable, safe”.
Take `C/C=C/C[C@@H](C)C(=O)[C@H]1C(=O)N[C@@H](C(C)C)C(=O)N(C)CC(=O)N(C)[C@@H](CC(C)C)C(=O)N[C@@H](C(C)C)C(=O)N(C)[C@@H](CC(C)C)C(=O)N[C@@H](C)C(=O)N[C@H](C)C(=O)N(C)[C@@H](CC(C)C)C(=O)N(C)[C@@H](CC(C)C)C(=O)N(C)[C@@H](C(C)C)C(=O)N1C` [PSC-833, valspodar]: the early deaths entry in data set [5] is “excessive early deaths”.
As for “DLL4-Fc: Recombinant human DLL4 (Fc chimera, ab108557), canonical NOTCH ligand”, in data set [1] (DLL4-Fc vs IgG-Fc coated plates, 4 h), the “NOTCH activation assessed by HES1 expression” value was “increases in NOTCH activation”.
